Measured values from PubChem BioAssay (NCI).
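How tested: cells in 96-well plates exposed to compound for 48 hours at five concentrations. Here, GI50 denotes the concentration required for 50% inhibition of growth. TGI: total growth inhibition.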

How the values were obtained:
Assay in all cases: NCI anticancer screen, dose series, 48 h
A498 renal = system: A498 renal
HCT-15 colon = system: HCT-15 colon
IGROV1 ovarian = system: IGROV1 ovarian
SF-268 CNS = system: SF-268 CNS
SK-MEL-5 melanoma = system: SK-MEL-5 melanoma
SR leukemia = system: SR leukemia
UACC-257 melanoma = system: UACC-257 melanoma

SMILES | GI50 (A498 renal) [µM] | TGI (A498 renal) [µM] | GI50 (HCT-15 colon) [µM] | TGI (HCT-15 colon) [µM] | GI50 (IGROV1 ovarian) [µM] | TGI (IGROV1 ovarian) [µM] | GI50 (SF-268 CNS) [µM] | TGI (SF-268 CNS) [µM] | GI50 (SK-MEL-5 melanoma) [µM] | TGI (SK-MEL-5 melanoma) [µM] | GI50 (SR leukemia) [µM] | TGI (SR leukemia) [µM] | GI50 (UACC-257 melanoma) [µM] | TGI (UACC-257 melanoma) [µM]
COC(=O)C1=C(C)NC(C)=C(C(=O)OC)C1/C=C(Cl)/C=C/c1ccccc1 | 16.8 | 36 | 29.7 | > 100 | 18.2 | 43.8 | 20.9 | 58.8 | 17.2 | 33.4 | 19.5 | 38.5 | 16.8 | 41
CCCCS(=O)(=O)CCC(N)C(=O)O (stereo not drawn) | – | > 100 | – | > 100 | – | > 100 | – | > 100 | – | > 100 | – | > 100 | – | > 100
COc1cc(O)c(C(=O)/C=C/c2ccc(O)cc2)c(O)c1[C@@H]1C[C@H](CCc2ccc(O)cc2)O[C@H](c2ccc(O)cc2)C1 | 14 | 28.1 | 3.43 | 11.9 | 2.88 | 16.5 | 3.85 | 14.7 | 3.7 | 12.8 | 2.23 | 4.65 | 5.47 | 20.2
COc1ccc(Cn2cc3c(c2-c2ccc(OC)cc2)CCc2cnoc2-3)cc1 | 0.213 | 0.749 | 0.506 | > 100 | 0.775 | > 100 | 0.686 | > 100 | 0.343 | 4.71 | 0.331 | 1.94 | 1.57 | > 100
Cc1cc(Cl)ccc1NC(=O)c1cc2ccccc2cc1O | 0.22 | 1.4 | 0.641 | > 100 | 0.993 | > 100 | 1.91 | > 100 | 0.373 | 2.43 | 0.443 | 8.77 | 0.611 | 3.84
NC(=O)c1cc(-c2ccc(F)cc2)cc(-c2ccncc2)c1N | 4.17 | > 23.6 | > 25 | > 25 | > 25 | > 25 | > 25 | > 25 | > 20.2 | > 25 | > 25 | > 25 | > 25 | > 25
Cc1occc1C(=S)Nc1ccc(Cl)c(C(=O)OC(C)C2CC2)c1 (stereo not drawn) | – | 48.2 | – | 41.2 | – | 35.2 | – | 59.3 | – | 31.8 | – | 68.2 | – | > 100
N#CSCC1CC(O)(c2ccccc2)CC(c2ccc(F)cc2)O1 (stereo not drawn) | 1.9 | 4.1 | 1.76 | 4.89 | 3.19 | 12 | 1.65 | 3.3 | 1.74 | 3.26 | 0.572 | 3.19 | 3.29 | 11.9
CC1(C)[C@@H](O[C@@H]2OC[C@@H](O[C@@H]3O[C@H](CO)[C@@H](O)[C@H](O)[C@H]3O[C@@H]3OC[C@@H](O)[C@H](O)[C@H]3O)[C@H](O)[C@H]2O[C@@H]2O[C@H](CO)[C@@H](O)[C@H](O)[C@H]2O)CC[C@]2(C)[C@H]3CC[C@]45OC[C@@]6(CC[C@](C)(C=O)C[C@H]64)[C@H](O)C[C@@]5(C)[C@]3(C)CC[C@@H]12 | 0.825 | 1.53 | 1.62 | 4.37 | 0.872 | 1.84 | 0.963 | 1.99 | 2.8 | 5.36 | 0.185 | 1.92 | 0.92 | 1.83
O=C(O)c1cccc(N=Nc2c(S(=O)(=O)O)ccc3c2C(=O)c2ccccc2C3=O)c1O | – | > 100 | – | > 100 | – | > 100 | – | > 100 | – | > 100 | – | > 100 | – | > 100
CC(=Nc1ccccc1)C1=C(O)C(Cc2ccccc2)NC1=O (stereo not drawn) | 0.0307 | 0.259 | 0.0425 | > 48.1 | 0.0651 | > 100 | 0.0586 | > 76.2 | 0.0446 | 2.63 | 0.0231 | > 30.9 | > 100 | > 100
Cc1c(COc2cc(OCc3cccc(C#N)c3)c(CN3C[C@H](O)C[C@@H]3C(=O)O)cc2Cl)cccc1-c1ccc2c(c1)OCCO2 | 18.7 | 33.3 | 13.7 | 26.7 | 16.3 | 32.5 | 21.1 | 42.6 | 2.14 | 5.13 | 2.65 | 8.95 | 20.6 | 41.8
c1cc(CNCCN2CCNCC2)ccn1 | – | > 100 | – | > 100 | – | > 100 | – | > 100 | – | > 100 | – | > 100 | – | > 100
O=C(/C=C/c1cc([N+](=O)[O-])ccc1Cl)c1ccccc1 | 12.8 | 26.9 | 8 | 88.2 | 4.6 | 31.7 | 16.9 | 43.6 | 15.4 | 29.3 | 3.54 | > 100 | 16.2 | 33.6
